Data: patent US11136296B2, “Substituted N-arylethyl-2-arylquinoline-4-carboxamides and use thereof” (Bayer Aktiengesellschaft, priority 2017, dated 2021)

Target: FP receptor (Homo sapiens (Human), UniProt P43088)
Test: In vitro test of inhibition of human FP receptor activity (PGF2α-induced calcium flux in FP-expressing CHEM1 cells)
Assay type: cell-based
Details: PGF2α-induced (2 nM) calcium flux in FP-expressing CHEM1 cells; some as mean values from multiple determinations
Excerpt: Table 1 below lists the IC50 values from this assay for individual working examples of the invention (some as mean values from multiple independent individual determinations): […]

FP receptor, sequence (P43088 whole entry): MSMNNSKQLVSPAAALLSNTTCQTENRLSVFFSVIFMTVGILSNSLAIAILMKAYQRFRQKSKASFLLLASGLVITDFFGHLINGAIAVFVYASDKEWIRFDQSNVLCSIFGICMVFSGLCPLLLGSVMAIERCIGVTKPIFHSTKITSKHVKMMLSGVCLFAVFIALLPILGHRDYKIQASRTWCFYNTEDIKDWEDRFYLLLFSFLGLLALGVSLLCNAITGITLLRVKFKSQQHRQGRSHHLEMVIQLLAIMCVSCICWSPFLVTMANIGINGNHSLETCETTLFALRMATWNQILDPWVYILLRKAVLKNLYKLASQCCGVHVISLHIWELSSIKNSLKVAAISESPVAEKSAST

SMILES	IC50
Cc1c(-c2ccccc2)nc2ccc(Br)cc2c1C(=O)NCC(c1ccccc1Cl)N(C)CC(=O)O (racemic) [Example 187, (+/−)-N-[2-{[(6-Bromo-3-methyl-2-phenylquinolin-4-yl)carbonyl]amino}-1-(2-chlorophenyl)ethyl]-N-methylglycine]	36 nM
Cc1c(-c2ccccc2)nc2ccc(Br)cc2c1C(=O)NCC(NCC(=O)O)c1ccccc1Cl (racemic) [Example 190, (+/−)-N-[2-{[(6-Bromo-3-methyl-2-phenylquinolin-4-yl)carbonyl]amino}-1-(2-chlorophenyl)ethyl]glycine]	67 nM
Cc1c(-c2ccccc2)nc2ccc(Br)cc2c1C(=O)NCC(OCC(=O)O)c1ccccc1Cl (racemic) [Example 191, (+/−)-[2-{[(6-Bromo-3-methyl-2-phenylquinolin-4-yl)carbonyl]amino}-1-(2-chlorophenyl)ethoxy]acetic Acid]	100 nM
Cc1c(-c2ccccc2)nc2ccc(Br)cc2c1C(=O)NCC(SCC(=O)O)c1ccccc1Cl (racemic) [Example 194, (+/−)-{[2-{[(6-Bromo-3-methyl-2-phenylquinolin-4-yl)carbonyl]amino}-1-(2-chlorophenyl)ethyl]sulfanyl}acetic Acid]	7.9 nM
Cc1c(-c2ccccc2)nc2ccc(Br)cc2c1C(=O)NCC(c1ccccc1Cl)S(=O)(=O)CC(=O)O (racemic) [Example 197, (+/−)-{[2-{[(6-Bromo-3-methyl-2-phenylquinolin-4-yl)carbonyl]amino}-1-(2-chlorophenyl)ethyl]sulfonyl}acetic Acid]	21 nM
O=C(O)CCC(CNC(=O)c1c(Cl)c(-c2ccccc2)nc2ccc(Br)cc12)c1ccccc1C(F)(F)F (racemic) [Example 215, (+/−)-5-{[(6-Bromo-3-chloro-2-phenylquinolin-4-yl)carbonyl]amino}-4-[2-(trifluoromethyl)phenyl]pentanoic Acid]	5.4 nM
C#Cc1ccc2nc(-c3ccccc3)c(C)c(C(=O)NCC(CCC(=O)O)c3ccccc3Cl)c2c1 (racemic) [Example 218, (+/−)-4-(2-Chlorophenyl)-5-{[(6-ethynyl-3-methyl-2-phenylquinolin-4-yl)carbonyl]amino}pentanoic Acid]	13 nM
O=C(O)CCC(CNC(=O)c1c(Cl)c(-c2ccccc2)nc2ccc(Br)cc12)c1c(F)ccc(F)c1Cl (racemic) [Example 221, (+/−)-5-{[(6-Bromo-3-chloro-2-phenylquinolin-4-yl)carbonyl]amino}-4-(2-chloro-3,6-difluorophenyl)pentanoic Acid]	2.4 nM
Cc1c(-c2ccccc2)nc2ccc(Br)cc2c1C(=O)NCC(CCC(=O)O)c1c(F)c(F)cc(F)c1F (racemic) [Example 228, (+/−)-5-{[(6-Bromo-3-methyl-2-phenylquinolin-4-yl)carbonyl]amino}-4-(2,3,5,6-tetrafluorophenyl)pentanoic Acid]	4.2 nM
Cc1c(-c2ccccc2)nc2ccc(Br)cc2c1C(=O)NCC(CCC(=O)O)c1cc(F)cc(F)c1F (racemic) [Example 231, (+/−)-5-{[(6-Bromo-3-methyl-2-phenylquinolin-4-yl)carbonyl]amino}-4-(2,3,5-trifluorophenyl)pentanoic Acid]	22 nM
Cc1c(-c2ccccc2)nc2ccc(Br)cc2c1C(=O)NCC(C)(CCCC(=O)O)c1ccccc1Cl (racemic) [Example 240, (+/−)-6-{[(6-Bromo-3-methyl-2-phenylquinolin-4-yl)carbonyl]amino}-5-(2-chlorophenyl)-5-methylhexanoic Acid]	24 nM
Cc1c(-c2ccccc2)nc2ccc(Br)cc2c1C(=O)NCC(C)(CCCC(=O)O)c1ccccc1 (racemic) [Example 243, (+/−)-6-{[(6-Bromo-3-methyl-2-phenylquinolin-4-yl)carbonyl]amino}-5-methyl-5-phenylhexanoic Acid]	31 nM
Cc1c(-c2ccccc2)nc2ccc(Br)cc2c1C(=O)NCC(C(=O)O)c1ccc(F)cc1 (single isomer, unassigned) [Example 11, 3-{[(6-Bromo-3-methyl-2-phenylquinolin-4-yl)carbonyl]amino}-2-(4-fluorophenyl)propanoic Acid]	470 nM
Cc1c(-c2ccccc2)nc2ccc(Br)cc2c1C(=O)NCC(C(=O)O)c1ccc(F)cc1 (single isomer, unassigned) [Example 12, 3-{[(6-Bromo-3-methyl-2-phenylquinolin-4-yl)carbonyl]amino}-2-(4-fluorophenyl)propanoic Acid]	180 nM
Cc1c(-c2ccccc2)nc2ccc(Br)cc2c1C(=O)NCC(C(=O)O)c1ccc2c(c1)OCO2 (single isomer, unassigned) [Example 24, 2-(1,3-Benzodioxol-5-yl)-3-{[(6-bromo-3-methyl-2-phenylquinolin-4-yl)carbonyl]amino}propanoic Acid]	580 nM
Cc1c(-c2ccccc2)nc2ccc(Br)cc2c1C(=O)NCC(C(=O)O)c1ccc2c(c1)OCO2 (single isomer, unassigned) [Example 25, 2-(1,3-Benzodioxol-5-yl)-3-{[(6-bromo-3-methyl-2-phenylquinolin-4-yl)carbonyl]amino}propanoic Acid]	> 1000 nM
Cc1c(-c2ccccc2)nc2ccc(Br)cc2c1C(=O)NCC(C)(C(=O)O)c1ncccc1Cl (single isomer, unassigned) [Example 27, 3-{[(6-Bromo-3-methyl-2-phenylquinolin-4-yl)carbonyl]amino}-2-(3-chloropyridin-2-yl)-2-methylpropanoic Acid]	53 nM
Cc1c(-c2ccccc2)nc2ccc(Br)cc2c1C(=O)NCC(C)(C(=O)O)c1ncccc1Cl (single isomer, unassigned) [Example 28, 3-{[(6-Bromo-3-methyl-2-phenylquinolin-4-yl)carbonyl]amino}-2-(3-chloropyridin-2-yl)-2-methylpropanoic Acid]	100 nM
Cc1c(-c2ccccc2)nc2ccc(Br)cc2c1C(=O)NCC(CC(=O)O)c1cccc(Cl)c1 (single isomer, unassigned) [Example 73, 4-{[(6-Bromo-3-methyl-2-phenylquinolin-4-yl)carbonyl]amino}-3-(3-chlorophenyl)butanoic Acid]	86 nM
Cc1c(-c2ccccc2)nc2ccc(Br)cc2c1C(=O)NCC(CC(=O)O)c1c(Cl)cccc1Cl (single isomer, unassigned) [Example 79, 4-{[(6-Bromo-3-methyl-2-phenylquinolin-4-yl)carbonyl]amino}-3-(2,6-dichlorophenyl)butanoic Acid]	140 nM
Cc1c(-c2ccccc2)nc2ccc(Br)cc2c1C(=O)NCC(CC(=O)O)c1c(Cl)cccc1Cl (single isomer, unassigned) [Example 80, 4-{[(6-Bromo-3-methyl-2-phenylquinolin-4-yl)carbonyl]amino}-3-(2,6-dichlorophenyl)butanoic Acid]	51 nM

The remaining lines, values ahead:

IC50	SMILES
7.7 nM	Cc1c(-c2ccccc2)nc2ccc(Br)cc2c1C(=O)NCC(CCC(=O)O)c1cccc(F)c1Cl (racemic) [Example 184, (+/−)-5-{[(6-Bromo-3-methyl-2-phenylquinolin-4-yl)carbonyl]amino}-4-(2-chloro-3-fluorophenyl)pentanoic Acid]
3.6 nM	Cc1c(-c2ccccc2)nc2ccc(Br)cc2c1C(=O)NCC(CCC(=O)O)c1c(Cl)ccc(F)c1F (racemic) [Example 200, (+/−)-5-{[(6-Bromo-3-methyl-2-phenylquinolin-4-yl)carbonyl]amino}-4-(6-chloro-2,3-difluorophenyl)pentanoic Acid]
7.6 nM	Cc1c(-c2ccccc2)nc2ccc(Br)cc2c1C(=O)NCC(CCC(=O)O)c1ccccc1C(F)(F)F (racemic) [Example 203, (+/−)-5-{[(6-Bromo-3-methyl-2-phenylquinolin-4-yl)carbonyl]amino}-4-[2-(trifluoromethyl)phenyl]pentanoic Acid]
13 nM	Cc1ccc(F)cc1C(CCC(=O)O)CNC(=O)c1c(C)c(-c2ccccc2)nc2ccc(Br)cc12 (racemic) [Example 206, (+/−)-5-{[(6-Bromo-3-methyl-2-phenylquinolin-4-yl)carbonyl]amino}-4-(5-fluoro-2-methylphenyl)pentanoic Acid]
1.8 nM	Cc1c(-c2ccccc2)nc2ccc(Br)cc2c1C(=O)NCC(CCC(=O)O)c1ccccc1OC(F)(F)F (racemic) [Example 209, (+/−)-5-{[(6-Bromo-3-methyl-2-phenylquinolin-4-yl)carbonyl]amino}-4-[2-(trifluoromethoxy)phenyl]pentanoic Acid]
6.6 nM	O=C(O)CCC(CNC(=O)c1c(Cl)c(-c2ccccc2)nc2ccc(Br)cc12)c1ccccc1Cl (racemic) [Example 212, (+/−)-5-{[(6-Bromo-3-chloro-2-phenylquinolin-4-yl)carbonyl]amino}-4-(2-chlorophenyl)pentanoic Acid]
100 nM	Cc1c(-c2ccccc2)nc2ccc(Br)cc2c1C(=O)NCC(CCC(=O)O)c1ccccn1 (racemic) [Example 224, (+/−)-5-{[(6-Bromo-3-methyl-2-phenylquinolin-4-yl)carbonyl]amino}-4-(pyridin-2-yl)pentanoic Acid]
4.7 nM	Cc1c(-c2ccccc2)nc2ccc(Br)cc2c1C(=O)NCC(CCC(=O)O)c1c(F)cccc1C(F)(F)F (racemic) [Example 225, (+/−)-5-{[(6-Bromo-3-methyl-2-phenylquinolin-4-yl)carbonyl]amino}-4-[2-fluoro-6-(trifluoromethyl)phenyl]pentanoic Acid]
7.2 nM	Cc1c(-c2ccccc2)nc2ccc(Br)cc2c1C(=O)NCC(CCC(=O)O)c1c(Cl)ccc(Cl)c1Cl (racemic) [Example 234, (+/−)-5-{[(6-Bromo-3-methyl-2-phenylquinolin-4-yl)carbonyl]amino}-4-(2,3,6-trichlorophenyl)pentanoic Acid]
79 nM	Cc1c(-c2ccccc2)nc2ccc(Br)cc2c1C(=O)NCC(CC(=O)O)c1cccc(Cl)c1 (single isomer, unassigned) [Example 74, 4-{[(6-Bromo-3-methyl-2-phenylquinolin-4-yl)carbonyl]amino}-3-(3-chlorophenyl)butanoic Acid]
